Broadly, the pEC50 is −log10 of the EC50, conventionally taken in molar units. A low value points to a large EC50. What is called pIC50 is −log10 of the IC50, conventionally taken in molar units.

The target in assay [1] is T1, Akt3 (Homo sapiens, UniProt Q9Y243).
T1 construct: endogenous in cells; host or cells: human CD4+/CD45RA+/CD25- naive T cells under iTreg induction conditions
Briefly: Akt3 activation activity of selected compounds. The format is cell-based.

Assay [2] deals with T1, Akt3. Kind of assay: Akt3 inhibition activity of selected compounds. It is filed as cell-based.

pEC50, pIC50: −log10 of the molar value.

T1 sequence (Q9Y243 whole entry): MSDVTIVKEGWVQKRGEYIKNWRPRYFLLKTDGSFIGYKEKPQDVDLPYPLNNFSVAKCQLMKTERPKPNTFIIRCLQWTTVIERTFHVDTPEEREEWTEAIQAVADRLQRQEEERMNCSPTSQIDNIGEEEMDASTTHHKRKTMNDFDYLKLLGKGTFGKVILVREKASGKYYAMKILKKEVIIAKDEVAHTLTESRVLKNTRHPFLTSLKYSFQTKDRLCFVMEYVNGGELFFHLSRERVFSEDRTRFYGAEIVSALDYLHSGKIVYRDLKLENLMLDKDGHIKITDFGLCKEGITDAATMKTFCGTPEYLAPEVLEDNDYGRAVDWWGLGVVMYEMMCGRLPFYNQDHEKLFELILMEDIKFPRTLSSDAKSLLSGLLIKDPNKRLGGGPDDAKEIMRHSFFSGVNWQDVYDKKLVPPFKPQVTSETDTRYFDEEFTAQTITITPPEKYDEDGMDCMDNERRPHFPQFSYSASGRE

For `N#Cc1ccc2nccc(Nc3cccc(C(=O)Nc4ccc(Nc5ccncc5)cc4)c3)c2c1` [Compound 2, 3-((6-cyanoquinolin-4-yl)amino)-N-(4-(pyridin-4-ylamino)phenyl)benzamide], on Akt3 [1], the negative logarithm of the EC50 (pEC50) was above 5.30. The compound `Cc1c(Nc2ccc(C(=O)Nc3cccc(Nc4ccncc4)c3)cc2)ccnc1N` [Compound 21, 4-(2-amino-3-methylpyridin-4-ylamino)-N-(3-(pyridin-4-ylamino)phenyl)benzamide] gave a negative-log IC50 (pIC50) against Akt3 [2] above 5.70. Regarding `Cc1cc(Nc2ccc(C(=O)Nc3cccc(Nc4ccncc4)c3)cc2)cc(N)n1` [Compound 20, 4-(2-amino-6-methylpyridin-4-ylamino)-N-(3-(pyridin-4-ylamino)phenyl)benzamide], on Akt3 [2], the pIC50 was above 5.30. The same measure, in the same setting: then `O=C(Nc1ccc(Nc2ccncc2)cc1)c1cccc(Nc2ccnc3ccc(F)cc23)c1` [Compound 3, 3-((6-fluoroquinolin-4-yl)amino)-N-(4-(pyridin-4-ylamino)phenyl)benzamide], with above 5.70; and `Nc1cc(Nc2ccc(C(=O)Nc3cccc(Nc4ccncc4)c3)cc2)ccn1` [Compound 19, 4-(2-aminopyridin-4-ylamino)-N-(3-(pyridin-4-ylamino)phenyl)benzamide], with above 5.30. The same measure, in the same setting: then `Cc1cccc2nccc(Nc3cccc(C(=O)Nc4ccc(Nc5ccncc5)cc4)c3)c12` [Compound 18, 3-((5-methylquinolin-4-yl)amino)-N-(4-(pyridin-4-ylamino)phenyl)benzamide], with above 5.70.

These data come from patent publication US20240228457A1, “AKT3 MODULATORS” (Georgiamune Inc., priority 2020, published 2024).
